Experimental data as given in patent US11547685B2, “Using probenecid to treat polycystic kidney disease” (Mayo Foundation for Medical Education and Research, priority 2017, dated 2023).
Where “and” joins values, the source holds several entries; their conditions need not be identical. Equal entries are not always repeated. Entries after “also recorded” stand apart in the source; their conditions may differ.

Tests used:
mIMCD3 cells [1] = experiment: Three dimensional (3D) cystogenesis assay, forskolin-induced; format: cell-based, mouse; conditions: for reduction in cyst size: 5 days
Method: FIG. 2. Probenecid reduces forskolin-induced cystogenesis. mIMCD3 cells were grown in 3D matrigel-based extracellular matrix system and incubated with defined medium (control)+/−forskolin (10 μM) and probenecid (500 μM and 1000 μM) for 5 days. Cysts were imaged using an inverted phase microscope, and cyst size was quantified by measuring cyst diameter using Image J software and reported as cyst surface area (μm^2). Forskolin induced cystogenesis in wild type. […] FIG. 3. Probenecid reduces forskolin induced in vitro cystogenesis. As described in FIG. 3, cells were grown in matrigel based system for 5 days. All four groups shown were stimulated with 10 μM of forskolin. Different doses of probenecid were compared. A dose effect was seen as higher dose of probenecid were more efficacious in reducing cyst growth when stimulated with forskolin. […] 3D matrix was prepared by mixing 1:1 matrigel with defined medium (DMEM, 25 μg/L EGF, 5 μg/mL insulin, 5 μg/mL transferrin, 5 ng/mL selenium, penicillin, streptomycin, 5×10^−12 M triiodothyronine, and 5×10^−8 M hydrocortisone). Cells were mixed with the extracellular matrix and grown in 96-wells plate (8000-10000 cells per well). The desired drug concentration (forskolin 10 μM, probenecid 500-1000 μM) was added to the medium and changed on a daily basis. Images of the wells were taken daily by an inverted phase contrast microscope. Images from day 5 were analyzed using Image J software. Cyst surface was calculated using cyst diameter. mIMCD3 cells were grown in three dimensional matrix-based extracellular matrix. When stimulated with forskolin, these cells grew to form multiple cysts. […] The cyst reduction may be due to inhibition of cell proliferation, inhibition of chloride driven fluid secretion, or both.

mIMCD3 cells [2] = experiment: Time-lapse imaging of cytoplasmic calcium with Gcamp6s biosensor; format: cell-based, mouse; conditions: probenecid 1000 μM, mIMCD3 cells stably transfected with Gcamps6s
Method: FIG. 1B. Probenecid increases intracytoplasmic calcium in mouse inner medullary collecting duct cells (mIMCD3). mIMCD3 cells were stably transfected with […] (cytoplasmic calcium genetically encoded biosensor) and grown on 35 mm glass bottom dish for at least 5 days post confluence then imaged under confocal microscopy every 3 seconds. Probenecid (1000 μM) was added to the medium at 10.5 minutes as noted by the blue bar. Fluorescence changes of a region of interest (ROI) in each cell are analyzed in Zen software and reported as a ratio of fluorescence over baseline fluorescence of each ROI (F/F0). An increase in F/F0 indicates relative increase in cytoplasmic calcium. Probenecid increased cytoplasmic calcium by 4-6 folds compared to baseline calcium. Two representative images at baseline and at peak increase of cytoplasmic calcium are shown. Mouse inner medullary collecting duct immortalized cell lines were used (mIMCD3): wild type (WT) or with a knockout of Pkd1 (Pkd^1-/-) or Pkd2 (Pkd^2-/-). WT cells were transfected with GCamp6s by electroporation (Bio Rad Gene pulser Xcell). […] Time lapses (every 3 seconds) were captured on Zeiss confocal microscope (LSM-780) and analyzed on Zeiss Zen Pro software. […] Fluorescence changes of a region of interest (ROI) in each cell were analyzed in Zen software and reported as a ratio of fluorescence over baseline fluorescence of each ROI (F/F0). […]

mIMCD3 cells [3] = experiment: cAMP ELISA assay; format: cell-based, mouse
Method: FIG. 4. Probenecid enhances the intracellular accumulation of cAMP generated in response to forskolin. Wild type mIMCD3 cells were grown in 6 wells plate to confluence for at least 5 days then treated with either forskolin (10 μM) alone, probenecid alone (500 μM; PB 500), or forskolin (FSK) with probenecid (100 μM, PB100; 250 μM, PB250; and 500 μM, PB500). cAMP was measured by ELISA assay (pmol/mg of protein). […] Cells were grown in 6-wells culture dishes and incubated for at least 5 days post confluence. Cells were collected then homogenized in 0.1 M HCl. The protein concentration was measured by using BCA Protein Assay Kit. After centrifugation, the supernatant was further diluted in 0.1 M HCl. cAMP content was assessed by enzyme-linked immunosorbent assay. The results were expressed in picomoles per milligram of protein. Probenecid inhibited MRP1 mediated efflux of cAMP.

[4] = system: Pkd1^RC/RC PKD mouse model; experiment: PKD mouse model Pkd1RC/RC, kidney weight/body weight; format: in vivo; conditions: Pkd1^RC/RC mice, 0.03 mg in 100 mg of chow, treated from age 4 weeks to 12 weeks
Method: The PKD mouse model, Pkd1^RC/RC, was used in this experiment. Probenecid (0.03 mg in 100 mg of chow), tolvaptan (0.03 mg in 100 mg of chow), or the combination of tolvaptan and probenecid were mixed with the food. […] The treatment started from age 4 weeks to 12 weeks. Mice were sacrificed, and the kidney weight (KW) was measured then standardized to body weight (BW). KW/BW ratio was an established method to report an effect of therapy in ADPKD mouse models.

mIMCD3 cells [5] = experiment: Proliferation assay (Incucyte confluence); format: cell-based, mouse; conditions: 7 days
Method: FIG. 5. Probenecid inhibits proliferation in mICMD3 cells. mIMCD3 cells were grown in 96 wells plate (2500 […]) for 7 days and imaged every 4 hours in an incubator-based imaging system (Incucyte). Confluence was measured at each time point. Cells were treated with defined medium (control), forskolin (FSK) 10 μM, or probenecid (PB) 500 μM and 1000 μM. Control and forskolin (FSK 10 μM) groups reached confluence faster when compared to probenecid alone or probenecid with forskolin. […] Cells were seeded in 96 wells plate (2500 cells/well) and grown for 7 days. Images were taken by an incubator-based microscope (Incucyte) every 4 hours and analyzed for confluence. Probenecid inhibited proliferation in a dose dependent manner. Cells were grown and imaged for 7 days in an incubator-based imaging system (IncuCyte) and analyzed for confluence.

embryonic kidneys = experiment: Forskolin-induced cystogenesis in cultured embryonic kidneys; conditions: E13.5 kidneys, forskolin-stimulated, probenecid 500 μM, day 5
Method: FIG. 6 contains photographs showing that probenecid (500 μM) dramatically reduces cystogenesis in embryonic kidneys. Embryonic kidneys were harvested at E13.5 (embryos were 13-14 days old in utero). These kidneys were harvested and cultured on filters and stimulated with forskolin to induce cysts.

Compound | reduction in cyst size (mIMCD3 cells [1]; probenecid 500 μM with forskolin 10 μM) | reduction in cyst size (mIMCD3 cells [1]; probenecid 1000 μM with forskolin 10 μM) | reduction of cystic burden in 3D in vitro cystogenesis assay (mIMCD3 cells [1]; summary statement) | cystogenesis with probenecid alone (mIMCD3 cells [1]; without forskolin) | increase in cytoplasmic calcium (F/F0) compared to baseline calcium (mIMCD3 cells [2]) | intracellular cAMP, probenecid combined with forskolin versus forskolin alone (mIMCD3 cells [3]; wild type mIMCD3, forskolin 10 μM plus probenecid 100, 250, 500 μM) | intracellular cAMP, probenecid alone (mIMCD3 cells [3]; wild type mIMCD3, probenecid 500 μM, no forskolin) | mean KW/BW ratio [4] | proliferation (confluence) (mIMCD3 cells [5]; Pkd2 null mIMCD3, probenecid 1000 μM alone) | proliferation (confluence) (mIMCD3 cells [5]; wild type mIMCD3, probenecid 500 and 1000 μM) | cyst formation in embryonic kidney culture (embryonic kidneys)
CCCN(CCC)S(=O)(=O)c1ccc(C(=O)O)cc1 [probenecid, 4-(dipropyl-sulfamoyl) benzoic acid] | 68.4% | 82.6% | more than 80% | did not induce any cystogenesis | 4-6 fold and 4- to 6 fold | increased cAMP levels in a dose dependent fashion | did not increase cAMP | 2.56% (±0.42) | most completely inhibited proliferation | significantly inhibited proliferation | significantly inhibited; also recorded: almost completely prevents cyst formation
Cc1ccccc1C(=O)Nc1ccc(C(=O)N2CCCC(O)c3cc(Cl)ccc32)c(C)c1 (stereo not drawn) [tolvaptan] | – | – | – | – | – | – | – | 2.07% (±0.42) | – | – | –
